We go through eight compounds from patent US20240158370A1, “CK1 alpha AND DUAL CK1 alpha / GSPT1 DEGRADING COMPOUNDS” (Innovo Therapeutics, Inc., priority 2022, published 2024).

Structures are written as SMILES. Bounds are passed on as bounds.

The term DC50 denotes the concentration at which degradation of the target reaches its halfway point. High values mean degradation only at high concentration, low ones degradation at low concentration.

One experiment concerns the target GSPT1 (Homo sapiens, UniProt P15170+Q96SW2). The experiment can be described thus: HiBiT degradation assay, GSPT1, Procedure A. As to conditions: six hours. The class given is cell-based. Also noted: HiBit-GSPT1 KI HEK293(LgBit) Cells; host or cells: HEK293(LgBit) knock-in cells. The method, boiled down: (§1)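 Luminescence from HiBiT lytic detection reports remaining tagged protein after cells sit six hours at 37° C with compound across ten concentrations (10 μM down to 0.005 μM, 0.1% DMSO). A 4-parameter curve fit gives DC50 and Ymin.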

In the next experiment the target is T1, CK1α (Homo sapiens, UniProt P48729+Q96SW2).
T1 construct: CSNK1A1-HiBit KI HEK293(LgBit) Cells; host or cells: HEK293(LgBit) knock-in cells
The experiment in a line: HiBiT degradation assay, CK1α, Procedure A. Type of experiment: cell-based. As to conditions: six hours. The method, boiled down: as §1

Sequence of GSPT1 (P15170 whole entry): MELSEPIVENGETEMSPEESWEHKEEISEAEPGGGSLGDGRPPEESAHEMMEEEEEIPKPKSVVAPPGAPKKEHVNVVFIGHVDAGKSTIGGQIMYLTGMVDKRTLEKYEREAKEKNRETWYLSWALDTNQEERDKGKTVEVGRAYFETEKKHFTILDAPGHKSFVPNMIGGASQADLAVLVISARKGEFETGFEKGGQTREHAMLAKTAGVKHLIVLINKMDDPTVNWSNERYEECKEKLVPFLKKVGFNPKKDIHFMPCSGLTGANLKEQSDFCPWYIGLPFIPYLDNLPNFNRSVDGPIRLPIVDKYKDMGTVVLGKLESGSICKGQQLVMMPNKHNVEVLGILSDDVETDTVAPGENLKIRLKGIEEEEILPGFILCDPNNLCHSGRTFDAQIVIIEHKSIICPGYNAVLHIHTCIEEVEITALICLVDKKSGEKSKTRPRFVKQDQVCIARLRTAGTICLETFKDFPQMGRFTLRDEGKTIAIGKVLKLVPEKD
Sequence of GSPT1 (Q96SW2 whole entry): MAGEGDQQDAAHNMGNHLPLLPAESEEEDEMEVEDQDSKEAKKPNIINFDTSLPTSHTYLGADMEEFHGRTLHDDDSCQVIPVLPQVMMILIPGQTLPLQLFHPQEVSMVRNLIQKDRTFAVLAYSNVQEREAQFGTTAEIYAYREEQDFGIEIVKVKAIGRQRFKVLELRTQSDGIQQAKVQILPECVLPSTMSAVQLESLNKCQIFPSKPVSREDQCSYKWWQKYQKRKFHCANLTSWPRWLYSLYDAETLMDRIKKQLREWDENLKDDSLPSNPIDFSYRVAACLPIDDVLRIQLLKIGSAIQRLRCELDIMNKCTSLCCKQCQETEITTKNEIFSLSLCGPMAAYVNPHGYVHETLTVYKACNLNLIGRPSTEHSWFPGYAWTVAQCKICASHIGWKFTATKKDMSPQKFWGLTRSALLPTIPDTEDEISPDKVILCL
Sequence of GSPT1 (Q16531 whole entry partner): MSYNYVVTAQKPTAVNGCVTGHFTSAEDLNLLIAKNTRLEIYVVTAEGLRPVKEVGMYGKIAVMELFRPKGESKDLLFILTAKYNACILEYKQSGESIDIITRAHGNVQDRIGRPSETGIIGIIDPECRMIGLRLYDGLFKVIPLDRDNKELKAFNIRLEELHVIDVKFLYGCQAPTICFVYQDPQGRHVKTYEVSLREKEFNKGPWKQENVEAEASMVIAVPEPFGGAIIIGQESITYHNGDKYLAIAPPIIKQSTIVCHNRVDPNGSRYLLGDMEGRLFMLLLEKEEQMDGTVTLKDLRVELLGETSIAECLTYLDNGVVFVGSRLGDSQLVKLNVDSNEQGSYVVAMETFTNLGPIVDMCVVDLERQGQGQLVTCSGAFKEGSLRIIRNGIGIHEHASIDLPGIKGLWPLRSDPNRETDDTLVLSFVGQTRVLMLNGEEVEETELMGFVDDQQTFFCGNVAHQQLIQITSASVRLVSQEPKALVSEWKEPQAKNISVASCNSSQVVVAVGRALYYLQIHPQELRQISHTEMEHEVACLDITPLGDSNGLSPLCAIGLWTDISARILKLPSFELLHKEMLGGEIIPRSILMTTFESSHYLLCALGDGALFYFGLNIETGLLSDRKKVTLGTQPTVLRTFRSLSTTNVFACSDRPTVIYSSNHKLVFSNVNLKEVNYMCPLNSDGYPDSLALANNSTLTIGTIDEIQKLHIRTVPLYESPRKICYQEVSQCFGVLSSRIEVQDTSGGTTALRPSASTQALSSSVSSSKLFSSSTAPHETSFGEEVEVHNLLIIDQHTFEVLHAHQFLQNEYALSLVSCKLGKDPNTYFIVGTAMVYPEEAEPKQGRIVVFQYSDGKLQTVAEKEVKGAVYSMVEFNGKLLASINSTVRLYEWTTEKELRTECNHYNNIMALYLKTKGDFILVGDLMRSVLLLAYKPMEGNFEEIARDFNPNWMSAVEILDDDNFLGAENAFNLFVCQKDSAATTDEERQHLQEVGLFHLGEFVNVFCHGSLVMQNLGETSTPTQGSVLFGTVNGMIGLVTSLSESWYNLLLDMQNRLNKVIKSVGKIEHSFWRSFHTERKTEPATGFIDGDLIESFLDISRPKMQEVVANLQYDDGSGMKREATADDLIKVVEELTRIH
T1 sequence (P48729 whole entry): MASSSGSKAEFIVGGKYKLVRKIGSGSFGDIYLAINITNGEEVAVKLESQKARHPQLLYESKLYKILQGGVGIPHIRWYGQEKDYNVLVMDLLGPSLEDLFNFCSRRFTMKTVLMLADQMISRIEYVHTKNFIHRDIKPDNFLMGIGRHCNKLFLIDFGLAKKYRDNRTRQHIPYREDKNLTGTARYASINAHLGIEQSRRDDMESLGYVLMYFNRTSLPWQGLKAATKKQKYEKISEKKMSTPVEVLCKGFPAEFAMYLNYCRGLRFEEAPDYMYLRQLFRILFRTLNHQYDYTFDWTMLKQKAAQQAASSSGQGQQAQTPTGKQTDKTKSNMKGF
T1 sequence (Q96SW2 whole entry): as the sequence (Q96SW2 whole entry) above
T1 sequence (Q16531 whole entry partner): as the sequence (Q16531 whole entry partner) above

Regarding `COc1ccc(-c2c(-c3ccc4c(c3)CN(C3CCC(=O)NC3=O)C4=O)cnn2C(F)F)cc1F` (stereo not shown) [Example 417, 3-(5-(1-(difluoromethyl)-5-(3-fluoro-4-methoxyphenyl)-1H-pyrazol-4-yl)-1-oxoisoindolin-2-yl)piperidine-2,6-dione], at GSPT1, the DC50 was at least 25 nM and the “GSPT1 Ymin” value is recorded as “F (F = >75-100% remaining)”. Also, on CK1α, the “CK1α Ymin” value is given as “D (D = >10- 25% remaining)” and the 50% degradation concentration (DC50) is under 25 nM.

Consider `COc1ccc(-c2c(-c3ccc4c(c3)CN(C3CCC(=O)NC3=O)C4=O)cnn2C(F)F)cc1` (stereo not shown) [Example 418, 3-(5-(1-(difluoromethyl)-5-(4-methoxyphenyl)-1H-pyrazol-4-yl)-1-oxoisoindolin-2-yl)piperidine-2,6-dione], for which, on GSPT1, the DC50 is at least 25 nM and the “GSPT1 Ymin” value is “E (E = >25-75% remaining)”. Further, at CK1α, the “CK1α Ymin” value was “C (C = 0-10% remaining)” and the DC50 is under 25 nM.

On to `Cn1c(C2OCCCO2)nc(-c2ccc3c(c2)CN(C2CCC(=O)NC2=O)C3=O)c1-c1ccccc1` (stereo not shown) [Example 419, 3-(5-(2-(1,3-dioxan-2-yl)-1-methyl-5-phenyl-1H-imidazol-4-yl)-1-oxoisoindolin-2-yl)piperidine-2,6-dione], for which, on GSPT1, the DC50 is at least 25 nM and the “GSPT1 Ymin” value is on record as “F (F = >75-100% remaining)”. For the same compound, at CK1α, the “CK1α Ymin” value was “C (C = 0-10% remaining)” and the DC50 is under 25 nM.

For the compound `Cn1c(C2CCOCC2)nc(-c2ccc3c(c2)CN(C2CCC(=O)NC2=O)C3=O)c1-c1cccnc1` (stereo not shown) [Example 420, 3-(5-(1-methyl-5-(pyridin-3-yl)-2-(tetrahydro-2H-pyran-4-yl)-1H-imidazol-4-yl)-1-oxoisoindolin-2-yl)piperidine-2,6-dione], on GSPT1, the DC50 was at least 25 nM and the “GSPT1 Ymin” value was “F (F = >75-100% remaining)”. Also, at CK1α, the “CK1α Ymin” value was “C (C = 0-10% remaining)” and the DC50 is under 25 nM.

With `O=C1CCC(N2Cc3cc(-c4cn(C(F)F)nc4-c4ccc5c(c4)CCO5)ccc3C2=O)C(=O)N1` (stereo not shown) [Example 423, 3-(5-(1-(difluoromethyl)-3-(2,3-dihydrobenzofuran-5-yl)-1H-pyrazole-4-yl)-1-oxoisoindolin-2-yl)piperidine-2,6-dione], at GSPT1, the 50% degradation concentration (DC50) is at least 25 nM and the “GSPT1 Ymin” value is reported as “F (F = >75-100% remaining)”. In addition, on CK1α, the “CK1α Ymin” value is listed as “D (D = >10- 25% remaining)” and the DC50 is under 25 nM.

Regarding `O=C1CCC(N2Cc3cc(-c4cnn(C(F)F)c4-c4ccc5c(c4)CCO5)ccc3C2=O)C(=O)N1` (stereo not shown) [Example 424, 3-(5-(1-(difluoromethyl)-5-(2,3-dihydrobenzofuran-5-yl)-1H-pyrazol-4-yl)-1-oxoisoindolin-2-yl)piperidine-2,6-dione], at GSPT1, the DC50 was at least 25 nM and the “GSPT1 Ymin” value is on record as “F (F = >75-100% remaining)”. On CK1α, the “CK1α Ymin” value was “D (D = >10- 25% remaining)” and the 50% degradation concentration (DC50) was under 25 nM.

For `COc1ccc(-c2nn(C(F)F)cc2-c2ccc3c(c2)CN(C2CCC(=O)NC2=O)C3=O)c(Cl)c1` (stereo not shown) [Example 425, 3-(5-(3-(2-chloro-4-methoxyphenyl)-1-(difluoromethyl)-1H-pyrazol-4-yl)-1-oxoisoindolin-2-yl)piperidine-2,6-dione], the DC50 on GSPT1 is at least 25 nM; on CK1α, under 25 nM. The “CK1α Ymin” value on CK1α was “D (D = >10- 25% remaining)”.

On to `CC(C)n1ncc(-c2ccc3c(c2)CN(C2CCC(=O)NC2=O)C3=O)c1-c1ccccc1` (stereo not shown) [Example 426, 3-(5-(1-isopropyl-5-phenyl-1H-pyrazol-4-yl)-1-oxoisoindolin-2-yl)piperidine-2,6-dione], for which, on GSPT1, the DC50 is at least 25 nM and the “GSPT1 Ymin” value is “F (F = >75-100% remaining)”. Also, on CK1α, the “CK1α Ymin” value is on record as “D (D = >10- 25% remaining)” and the DC50 is under 25 nM.
